Results reported in patent publication EP0661266A1, “Substituted cyclic amine compounds as 5HT2 antagonists” (TOA EIYO LTD., priority 1993, dated 1995).
Structures can show the parent of a compound that is named as a salt. Where two headings read alike, the source gives them in different places.

Columns and labels:
serotonin 2 receptor = target: T1, serotonin 2 receptor (Rattus norvegicus, UniProt P14842); test: Measurement of serotonin 2 receptor antagonistic activity (serotonin contraction of excised rat tail artery spiral specimen); format: cell-based; details: against the contraction of 3 x 10⁻⁶ serotonin, drug administered 10 minutes before cumulative serotonin, read-out: IC₅₀ value
T1 construct: A piece of wire was inserted into each of the thus excised blood vessels to prepare a spiral specimen; from tissue; host or cells: rat (Wistar-KY) abdominal side tail artery, spiral specimen
Procedure: [Measurement of serotonin 2 receptor antagonistic activity]
Male rats of Wistar-KY line (body weight, approximately 220 to 370 g) were sacrificed and subjected to bloodletting to excise abdominal side tail arteries. A piece of wire was inserted into each of the thus excised blood vessels to prepare a spiral specimen (approximately 1.5 x 30 mm). The specimen was suspended in a Magnus tube (10 ml; Krebs-Hensereit solution) with a load of 500 mg at 37°C, and a gas mixture of 95% O₂ + CO₂ was passed through the tube. Tensile force was measured using a tension transducer (TB-621T, manufactured by Nippon Koden) and writing the data on an ink recorder (FBA-253A, manufactured by Toa Denpa) via a pressure amplifier (AP-621G, manufactured by Nippon Koden). After 1 hour of equilibration time, the specimen was contracted with 10⁻⁵ M of serotonin, washed and then subjected to cumulative administration of 10⁻⁸ to 3 x 10⁻⁵ M serotonin at intervals of 45 minutes to record the resulting contraction twice. The second recording was used as a control. Thereafter, each of the drugs to be tested was administered 10 minutes before the commencement of the cumulative administration to evaluate its serotonin antagonism. […] In the table, each result was indicated by "+" when the IC₅₀ value was 1.0 x 10⁻⁷ M or more, "++" when the value was 9.9 x 10⁻⁸ to 1.0 x 10⁻⁸ M and "+++" when the value was 9.9 x 10⁻⁹ M or smaller.

platelet aggregation = test: Measurement of platelet aggregation inhibition activity (5-HTP plus collagen induced aggregation of platelet rich plasma); format: cell-based; details: Oryctolagus cuniculus, rabbit PRP, 5-HTP final concentration 3 µM plus collagen in a concentration which alone does not cause aggregation, probit analysis, read-out: IC₅₀ value
Procedure: [Measurement of platelet aggregation inhibition activity]
Measurement of platelet aggregation was carried out using a platelet aggregation measuring apparatus NSB Hematracer 601.
Blood samples were collected from auricular arteries of male Japanese white rabbits (2 to 3 kg) using a syringe containing 1 volume of 3.8% sodium citrate per 9 volumes of blood and centrifuged at 900 rpm for 10 minutes. After collecting the resulting supernatant fluid as platelet rich plasma (PRP), the remaining lower layer was centrifuged at 3,000 rpm for 10 minutes to obtain platelet poor plasma (PPP). Platelets in the thus obtained PRP were counted using a microcell counter (Sysmex F-800, manufactured by Toa Iyo Denshi) and diluted with the PPP to a density of 30 x 10⁴/µl.
A 220 µl portion of PRP was mixed with 5 µl of 104 mM CaCl₂, incubated at 37°C for 1 minute and then mixed with 5 µl of a drug to be tested or physiological saline as a control. […] Activities to inhibit the aggregation reaction were measured to calculate 50% inhibition concentration (IC₅₀) by probit analysis, with the results shown in Table 2. In the table, each result was indicated by "+" when the IC₅₀ value was 1.0 x 10⁻⁶ M or more, "++" when the value was 9.9 x 10⁻⁷ to 1.0 x 10⁻⁷ M and "+++" when the value was 9.9 x 10⁻⁸ M or smaller.

[1] = system: 5-HTP-induced head-twitch; test: Measurement of activity to inhibit 5-HTP-induced head-twitch; format: in vivo, mouse; details: read-out: IC₅₀ value
Procedure: [Measurement of activity to inhibit 5-HTP-induced head-twitch]
To each ICR male mouse of 4 weeks of age were administered 300 mg/kg of 5-HTP by intraperitoneal injection (i.p.) and then 0.03 to 3 mg/kg of each test drug 25 minutes thereafter by intravenous injection, thereby counting the number of head-twitch induced after 5 minutes of the administration (for 20 minutes) and calculating the IC₅₀ value. In the table, each result was indicated by "+" when the IC₅₀ value was […] or more, "++" when the value was 100 to 999 mg/kg and "+++" when the value was 99 mg/kg or less.

T1 sequence (P14842 whole entry): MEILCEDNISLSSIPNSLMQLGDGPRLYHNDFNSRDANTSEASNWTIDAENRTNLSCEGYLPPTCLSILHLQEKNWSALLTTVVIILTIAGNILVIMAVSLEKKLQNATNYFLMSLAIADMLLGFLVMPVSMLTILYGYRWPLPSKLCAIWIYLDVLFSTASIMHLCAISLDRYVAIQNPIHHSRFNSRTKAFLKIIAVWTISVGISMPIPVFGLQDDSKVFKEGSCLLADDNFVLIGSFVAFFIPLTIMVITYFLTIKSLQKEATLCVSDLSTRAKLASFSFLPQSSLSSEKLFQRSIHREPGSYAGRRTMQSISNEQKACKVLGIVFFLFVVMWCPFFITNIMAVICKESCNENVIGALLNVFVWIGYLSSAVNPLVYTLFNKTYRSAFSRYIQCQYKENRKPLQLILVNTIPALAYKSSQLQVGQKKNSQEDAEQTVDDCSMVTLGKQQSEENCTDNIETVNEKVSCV

Structure (SMILES) | IC50 (serotonin 2 receptor) | IC50 (platelet aggregation) | ED50 ([1]; Mus musculus, iv) | ED50 ([1]; ICR male mouse, 300 mg/kg 5-HTP i.p., test drug 0.03 to 3 mg/kg intravenous 25 minutes thereafter, head-twitch counted for 20 minutes)
COc1cccc(CC(CCN2CCC(C(=O)c3ccc(F)cc3)CC2)c2ccccc2OC)c1 (stereo not drawn) [A, 4-(4-Fluorobenzoyl)-1-[3-(2-methoxyphenyl)-4-(3-methoxyphenyl)butyl]piperidine hydrochloride] | 10 to 99 nM |  |  | 
COc1cccc(C(=O)N(CCN2CCC(C(=O)c3ccc(F)cc3)CC2)c2ccccc2OC)c1 [B, N-{2-[4-(4-Fluorobenzoyl)piperidino]ethyl}-3-methoxy-N-(2-methoxyphenyl)benzamide oxalate] | 10 to 99 nM |  |  | 
COc1ccc(S(=O)(=O)N(CCN2CCC(C(=O)c3ccc(F)cc3)CC2)c2ccccc2OC)cc1 [C, N-{2-[4-(4-Fluorobenzoyl)piperidino]ethyl}-4-methoxy-N-(2-methoxyphenyl)benzenesulfonamide oxalate] |  | ≥ 1000 nM |  | 
COc1ccc(S(=O)(=O)NC(=N)CCN2CCC(C(=O)c3ccc(F)cc3)CC2)cc1 [Compound I, 3-[4-(4-Fluorobenzoyl)piperidino]-N-(4-methoxybenzenesulfonyl)propionamidine oxalate] | 10 to 99 nM |  |  | 
COc1ccccc1N(CCN1CCC(C(=O)c2ccc(F)cc2)CC1)S(=O)(=O)c1ccc(F)cc1 [D, 4-Fluoro-N-{2-[4-(4-fluorobenzoyl)piperidino]ethyl}-N-(2-methoxyphenyl)benzenesulfonamide oxalate] | 10 to 99 nM |  |  | 
COc1ccc(S(=O)(=O)N(CCN2CCC(C(=O)c3ccc(F)cc3)CC2)C2CCCCC2)cc1 [E, N-Cyclohexyl-N-{2-[4-(4-fluorobenzoyl)piperidino]ethyl}-4-methoxybenzenesulfonamide oxalate] | 10 to 99 nM |  |  | 
COc1ccccc1N(CCN1CCC(C(=O)c2ccc(F)cc2)CC1)S(=O)(=O)c1ccc(CO)cc1 [F, N-{2-[4-(4-Fluorobenzoyl)piperidino]ethyl}-4-hydroxymethyl-N-(2-methoxyphenyl)benzenesulfonamide oxalate] | < 9.9 nM |  |  | 
COc1ccccc1N(CCN1CCC(C(=O)c2ccc(F)cc2)CC1)C(=O)c1ccc(CO)cc1.O=C(O)C(=O)O [G, N-{2-[4-(4-Fluorobenzoyl)piperidino]ethyl}-4-hydroxymethyl-N-(2-methoxyphenyl)benzamide oxalate] |  | 100 to 990 nM | < 99 mg/kg | 
COc1ccccc1N(CCN1CCC(C(=O)c2ccc(F)cc2)CC1)C(=O)c1ccc(CN)cc1.O=C(O)C(=O)O [H, 4-Aminomethyl-N-{2-[4-(4-fluorobenzoyl)piperidino]ethyl}-N-(2-methoxyphenyl)benzamide oxalate] | 10 to 99 nM | 100 to 990 nM | > 1000 mg/kg | 
COc1cccc(N(CCN2CCC(C(=O)c3ccc(F)cc3)CC2)C(=O)c2ccc(NC(C)=O)cc2)c1.O=C(O)/C=C/C(=O)O [J, 4-Acetylamino-N-{2-[4-(4-fluorobenzoyl)piperidino]ethyl}-N-(3-methoxyphenyl)benzamide fumarate] | 10 to 99 nM | < 99 nM | 100 to 999 mg/kg | 
CC(=O)Nc1ccc(C(=O)N(CCN2CCC(C(=O)c3ccc(F)cc3)CC2)c2ccccc2)cc1 [K, 4-Acetylamino-N-{2-[4-(4-fluorobenzoyl)piperidino]ethyl}-N-(phenyl)benzamide fumarate] | 10 to 99 nM |  |  | 
O=C(c1ccc(F)cc1)C1CCN(CCn2c(=O)[nH]c3ccccc3c2=O)CC1 [ketanserin, reference compound] |  | 100 to 990 nM |  | < 99 mg/kg
